These results are taken from ChEMBL document CHEMBL3091441, “Ligand modifications to reduce the relative resistance of multi-drug resistant HIV-1 protease” (Bioorg Med Chem, 2013).

Test [1] in a line: Inhibition of HIV-1 multidrug-resistant protease 769 preincubated for 20 mins by FRET analysis. Further details: species or system Human immunodeficiency virus 1.
The target of test [2] is Protease (Human immunodeficiency virus 1, UniProt Q9YQ12). Briefly: Inhibition of HIV-1 NL4-3 wild type protease expressed in Escherichia coli preincubated for 20 mins by FRET analysis.
Chain of Protease (Q9YQ12 whole entry): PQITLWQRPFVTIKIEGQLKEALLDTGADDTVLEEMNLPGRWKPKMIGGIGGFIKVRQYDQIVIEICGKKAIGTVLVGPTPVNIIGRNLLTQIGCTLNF
Test [3] concerns Human immunodeficiency virus 1. Briefly: Ratio of IC50 for HIV-1 multidrug-resistant protease 769 to IC50 for HIV-1 NL4-3 wild type protease.

Molecules are shown by their SMILES. *1 amine or outer side, *2 acyl side, *3 side chain or, on linkers, in order; H or OH if unused. Where a SMILES comes first, the peptide text is derived from it. Side-chain parts run from the residue outwards. [ ]: non-standard residue; d: D form. N(2S-amino-4-Me-pentyl)Phe = CC(C)C[C@@H](CN([C@@H](Cc1ccccc1)C(=O)[*:2])[*:1])N[*:3]; N(2S-NH-3-Ph-propyl)Phe = O=C([C@H](Cc1ccccc1)N(C[C@H](Cc1ccccc1)N[*:3])[*:1])[*:2]; Nle = CCCC[C@H](N)C(=O)O

Consider `Cc1cccc(C)c1OCC(=O)N[C@@H](Cc1ccccc1)[C@@H](O)C[C@H](CC(C)C)NC(=O)[C@H](C(C)C)N1CCCNC1=O`, for which the IC50 in test [1] was found to be 6.8 nM; in test [2], 2.1 nM. Also, the Ratio IC50 in test [3] was determined as 3.2.

For `CCCC[C@H](NC(=O)CNC(=O)[C@H](CCC(=O)O)NC(=O)[C@H](Cc1ccccc1)NC[C@H](Cc1ccccc1)NC(=O)[C@@H](NC(=O)[C@@H](N)CCCNC(=N)N)C(C)C)C(=O)O` (H-[N(2S-NH-3-Ph-propyl)Phe]([Val-Arg])EG[Nle]-OH), the IC50 was determined as 142 nM in test [1] and 30.7 nM in test [2]. The Ratio IC50 in test [3] came out at 4.6.

For the molecule `CCCC[C@H](NC(=O)CNC(=O)[C@H](CCC(=O)O)NC(=O)[C@H](Cc1ccccc1)NC[C@H](CC(C)C)NC(=O)[C@@H](NC(=O)[C@@H](N)CCCNC(=N)N)C(C)C)C(=O)O` (H-[N(2S-amino-4-Me-pentyl)Phe]([Val-Arg])EG[Nle]-OH), the IC50 in test [1] came out at 4.4 nM; in test [2], 2.6 nM. For the same molecule, the Ratio IC50 in test [3] stood at 1.7.

Consider `Cc1cccc(C)c1OCC(=O)N[C@@H](Cc1ccccc1)[C@@H](O)C[C@H](Cc1ccccc1)NC(=O)[C@H](C(C)C)N1CCCNC1=O` [LOPINAVIR], for which the IC50 in test [1] came out at 16 nM. This lies in the double-digit nanomolar range.
